# In US20210221848A1, “POLYMYXIN DERIVATIVES AND THEIR USE IN COMBINATION THERAPY TOGETHER WITH DIFFERENT ANTIBIOTICS” (priority 2014, published 2021):
# Read-outs that look alike come from different tables or passages of the source. Bridge positions count the residues as written; N and C are the ends. Square brackets hold non-standard residues; d marks the D form. Peptide text beside a SMILES is read from it. * marks the point of attachment. ξ: configuration not given here. Thr(3ξ) = CC(O)[C@H](N)C(=O)O; X9 = CC(C)[C@H](N)CCC(=O)*; Octanoyl = CCCCCCCC(=O)*; Dab = NCC[C@H](N)C(=O)O; X15 = O=C(C1CCNC1)*; GABA = NCCCC(=O)O; βAla = NCCC(=O)O
# Legend:
# [1] = absence of a second agent, Table 6B
MIC (A. baumannii),Molecule,"MIC, A. baumannii ATCC BAA-747 (A. baumannii; [1])","MIC, E. coli ATCC 25922 (E. coli; [1])","MIC, E. coli NCTC 13441 (E. coli; [1])","MIC, P. aeruginosa ATCC 27853 (P. aeruginosa; [1])","MIC, P. aeruginosa CCUG 59347 (P. aeruginosa; [1])","MIC, K. pneumoniae ATCC 4352 (K. pneumoniae; [1])","MIC, K. pneumoniae ATCC BAA-2146 (K. pneumoniae; [1])","MIC, A. baumannii NCTC 13424 (A. baumannii; [1])",also measured
,(trans-6- octylpiperidine)-3- carbonyl polymyxin B nonapeptide [Example D19],2 micrograms/mL,2 micrograms/mL,2 micrograms/mL,0.5 micrograms/mL,1 micrograms/mL,2 micrograms/mL,4 micrograms/mL,,
,(cis-5-(2-methylpropyl) piperidine)-3-carbonyl polymyxin B nonapeptide [Example D48],0.5 micrograms/mL,0.125 micrograms/mL,0.125 micrograms/mL,0.25 micrograms/mL,1 micrograms/mL,0.125 micrograms/mL,0.25 micrograms/mL,0.5 micrograms/mL,
,(trans-6- octylpiperidine)-3- carbonyl polymyxin B nonapeptide [Example D18],>8 micrograms/mL,4 micrograms/mL,4 micrograms/mL,4 micrograms/mL,2 micrograms/mL,8 micrograms/mL,>8 micrograms/mL,>8 micrograms/mL,
4 µg/mL,"CC(C)C[C@@H]1NC(=O)[C@@H](Cc2ccccc2)NC(=O)[C@H](CCN)NC(=O)[C@@H](NC(=O)[C@H](CCN)NC(=O)[C@@H](NC(=O)CCCN)[C@@H](C)O)CCNC(=O)[C@H]([C@@H](C)O)NC(=O)[C@H](CCN)NC(=O)[C@H](CCN)NC1=O [Example B5, reference compound] (H-[GABA]T[Dab][Dab][Dab][dF]L[Dab][Dab]T; lactam 4-C)",,,,,,,,,
,2-(2-aminoethyl)-4- methyl pentanoyl polymyxin B nonapeptide [Example D46],1 micrograms/mL,1 micrograms/mL,1 micrograms/mL,0.5 micrograms/mL,1 micrograms/mL,0.5 micrograms/mL,1 micrograms/mL,2 micrograms/mL,
,(cis-5- cyclohexylpiperidine)- 3-carbonyl L-Thr-L- Dap-polymyxin B heptapeptide [Example D43],4 micrograms/mL,2 micrograms/mL,4 micrograms/mL,1 micrograms/mL,2 micrograms/mL,2 micrograms/mL,4 micrograms/mL,4 micrograms/mL,
,"1,2,3,4- tetrahydroisoquinoline- 4-carbonyl polymyxin B nonapeptide [Example D14]",>8 micrograms/mL,>8 micrograms/mL,>8 micrograms/mL,1 micrograms/mL,4 micrograms/mL,>8 micrograms/mL,>8 micrograms/mL,>8 micrograms/mL,
,4- (isobutylamino)pi- peridine-3- carbonyl L-Thr-L- Dap-polymyxin B heptapeptide [Example D74],,,,,,,,,"MIC, A. baumannii ATCC BAA-747 (A. baumannii; sole activity, Table 6C): 2 micrograms/mL; MIC, A. baumannii NCTC 13424 (A. baumannii; sole activity, Table 6C): 2 micrograms/mL; MIC, E. coli ATCC 25922 (E. coli; sole activity, Table 6C): 0.25 micrograms/mL; MIC, E. coli NCTC 13441 (E. coli; sole activity, Table 6C): 0.25 micrograms/mL; MIC, P. aeruginosa ATCC 27853 (P. aeruginosa; sole activity, Table 6C): 0.25 micrograms/mL; MIC, P. aeruginosa CCUG 59347 (P. aeruginosa; sole activity, Table 6C): 0.5 micrograms/mL; MIC, K. pneumoniae ATCC 4352 (K. pneumoniae; sole activity, Table 6C): 0.125 micrograms/mL; MIC, K. pneumoniae ATCC BAA-2146 (K. pneumoniae; sole activity, Table 6C): 0.5 micrograms/mL"
,(S)-3-amino-2- (benzyloxy)propan- oyl Polymyxin B nonapeptide [Example D61],,,,,,,,,"MIC, A. baumannii ATCC BAA-747 (A. baumannii; sole activity, Table 6C): 2 micrograms/mL; MIC, A. baumannii NCTC 13424 (A. baumannii; sole activity, Table 6C): 1 micrograms/mL; MIC, E. coli ATCC 25922 (E. coli; sole activity, Table 6C): 0.5 micrograms/mL; MIC, E. coli NCTC 13441 (E. coli; sole activity, Table 6C): 0.5 micrograms/mL; MIC, P. aeruginosa ATCC 27853 (P. aeruginosa; sole activity, Table 6C): 0.5 micrograms/mL; MIC, P. aeruginosa CCUG 59347 (P. aeruginosa; sole activity, Table 6C): 1 micrograms/mL; MIC, K. pneumoniae ATCC 4352 (K. pneumoniae; sole activity, Table 6C): 0.25 micrograms/mL; MIC, K. pneumoniae ATCC BAA-2146 (K. pneumoniae; sole activity, Table 6C): 0.25 micrograms/mL"
,(cis-6-octylpiperidine)- 3-carbonyl polymyxin B nonapeptide [Example D17],2 micrograms/mL,2 micrograms/mL,2 micrograms/mL,0.5 micrograms/mL,0.5 micrograms/mL,2 micrograms/mL,2 micrograms/mL,4 micrograms/mL,
,"(S)-1-((6-oxo-1- phenyl-1,6- dihydropyridin-3- yl)methyl)piperazine- 2-carbonyl Polymyxin B nonapeptide [Example D60]",,,,,,,,,"MIC, A. baumannii ATCC BAA-747 (A. baumannii; sole activity, Table 6C): 4 micrograms/mL; MIC, A. baumannii NCTC 13424 (A. baumannii; sole activity, Table 6C): 2 micrograms/mL; MIC, E. coli ATCC 25922 (E. coli; sole activity, Table 6C): 0.25 micrograms/mL; MIC, E. coli NCTC 13441 (E. coli; sole activity, Table 6C): 0.5 micrograms/mL; MIC, P. aeruginosa ATCC 27853 (P. aeruginosa; sole activity, Table 6C): 1 micrograms/mL; MIC, P. aeruginosa CCUG 59347 (P. aeruginosa; sole activity, Table 6C): 2 micrograms/mL; MIC, K. pneumoniae ATCC 4352 (K. pneumoniae; sole activity, Table 6C): 0.25 micrograms/mL; MIC, K. pneumoniae ATCC BAA-2146 (K. pneumoniae; sole activity, Table 6C): 0.5 micrograms/mL"
,"(S)-1-((2,3- dihydrobenzo[b][1,4] dioxin-6- yl)methyl)piperazine- 2-carbonyl polymyxin B nonapeptide [Example D58]",,,,,,,,,"MIC, A. baumannii ATCC BAA-747 (A. baumannii; sole activity, Table 6C): 1 micrograms/mL; MIC, A. baumannii NCTC 13424 (A. baumannii; sole activity, Table 6C): 0.5 micrograms/mL; MIC, E. coli ATCC 25922 (E. coli; sole activity, Table 6C): 0.25 micrograms/mL; MIC, E. coli NCTC 13441 (E. coli; sole activity, Table 6C): 0.25 micrograms/mL; MIC, P. aeruginosa ATCC 27853 (P. aeruginosa; sole activity, Table 6C): 0.5 micrograms/mL; MIC, P. aeruginosa CCUG 59347 (P. aeruginosa; sole activity, Table 6C): 1 micrograms/mL; MIC, K. pneumoniae ATCC 4352 (K. pneumoniae; sole activity, Table 6C): 0.25 micrograms/mL; MIC, K. pneumoniae ATCC BAA-2146 (K. pneumoniae; sole activity, Table 6C): 0.25 micrograms/mL"
,6- isobutylpiperazine- 2-carbonyl L- Thr-L-Dap- polymyxin B heptapeptide [Example D80],,,,,,,,,"MIC, A. baumannii ATCC BAA-747 (A. baumannii; sole activity, Table 6C): 0.5 micrograms/mL; MIC, A. baumannii NCTC 13424 (A. baumannii; sole activity, Table 6C): 0.5 micrograms/mL; MIC, E. coli ATCC 25922 (E. coli; sole activity, Table 6C): 0.5 micrograms/mL; MIC, P. aeruginosa ATCC 27853 (P. aeruginosa; sole activity, Table 6C): 0.5 micrograms/mL; MIC, P. aeruginosa CCUG 59347 (P. aeruginosa; sole activity, Table 6C): 0.5 micrograms/mL; MIC, K. pneumoniae ATCC 4352 (K. pneumoniae; sole activity, Table 6C): 0.25 micrograms/mL"
>8 µg/mL,"CC(C)C[C@@H]1NC(=O)[C@@H](Cc2ccccc2)NC(=O)[C@H](CCN)NC(=O)[C@@H](NC(=O)[C@H](CCN)NC(=O)[C@@H](NC(=O)CC[C@@H](N)C(C)C)[C@@H](C)O)CCNC(=O)[C@H]([C@@H](C)O)NC(=O)[C@H](CCN)NC(=O)[C@H](CCN)NC1=O [Example B6, reference compound] (X9-T[Dab][Dab][Dab][dF]L[Dab][Dab]T; lactam 3-C)",,,,,,,,,MIC (E. coli): 8 µg/mL; MIC (P. aeruginosa): 4 µg/mL
,"CC(C)C[C@@H]1NC(=O)[C@@H](Cc2ccccc2)NC(=O)[C@H](CCN)NC(=O)[C@@H](NC(=O)[C@H](CCN)NC(=O)[C@@H](NC(=O)C2CCNC2)[C@@H](C)O)CCNC(=O)[C@H]([C@@H](C)O)NC(=O)[C@H](CCN)NC(=O)[C@H](CCN)NC1=O (stereo partly drawn) [Example B8, reference compound] (X15-T[Dab][Dab][Dab][dF]L[Dab][Dab]T; lactam 3-C)",,,,,,,,,MIC (E. coli): 4 µg/mL
4 µg/mL,"CCCCCCCC(=O)N[C@H](C(=O)N[C@@H](CCN)C(=O)N[C@H]1CCNC(=O)[C@H]([C@@H](C)O)NC(=O)[C@H](CCN)NC(=O)[C@H](CCN)NC(=O)[C@H](CC(C)C)NC(=O)[C@@H](Cc2ccccc2)NC(=O)[C@H](CCN)NC1=O)[C@@H](C)O [CC6, Octanoyl polymyxin B nonapeptide, reference compound] (Octanoyl-T[Dab][Dab][Dab][dF]L[Dab][Dab]T; lactam 3-C)",,,,,,,,,MIC (E. coli): 0.5 µg/mL
>8 µg/mL,"CC(C)C[C@@H]1NC(=O)[C@@H](Cc2ccccc2)NC(=O)[C@H](CCN)NC(=O)[C@@H](NC(=O)[C@H](CCN)NC(=O)[C@@H](NC(=O)CCN)[C@@H](C)O)CCNC(=O)[C@H]([C@@H](C)O)NC(=O)[C@H](CCN)NC(=O)[C@H](CCN)NC1=O [Example B7, reference compound] (H-[βAla]T[Dab][Dab][Dab][dF]L[Dab][Dab]T; lactam 4-C)",,,,,,,,,
1 µg/mL,"CCCCCCCC(=O)N[C@@H](CCN)C(=O)N[C@H](C(=O)N[C@@H](CCN)C(=O)N[C@H]1CCNC(=O)[C@H]([C@@H](C)O)NC(=O)[C@H](CCN)NC(=O)[C@H](CCN)NC(=O)[C@H](CC(C)C)NC(=O)[C@@H](Cc2ccccc2)NC(=O)[C@H](CCN)NC1=O)C(C)O (stereo partly drawn) [CC4, Octanoyl polymyxin B decapeptide, reference compound] (Octanoyl-[Dab][Thr(3ξ)][Dab][Dab][Dab][dF]L[Dab][Dab]T; lactam 4-C)",,,,,,,,,

Molecule,MIC (A. baumannii),"MIC, A. baumannii ATCC BAA-747 (A. baumannii; [1])","MIC, E. coli ATCC 25922 (E. coli; [1])","MIC, E. coli NCTC 13441 (E. coli; [1])","MIC, P. aeruginosa ATCC 27853 (P. aeruginosa; [1])","MIC, P. aeruginosa CCUG 59347 (P. aeruginosa; [1])","MIC, K. pneumoniae ATCC 4352 (K. pneumoniae; [1])","MIC, K. pneumoniae ATCC BAA-2146 (K. pneumoniae; [1])","MIC, A. baumannii NCTC 13424 (A. baumannii; [1])",also measured
"CCCCCCCC(=O)NCC(=O)N[C@H](C(=O)N[C@@H](CCN)C(=O)N[C@H]1CCNC(=O)[C@H]([C@@H](C)O)NC(=O)[C@H](CCN)NC(=O)[C@H](CCN)NC(=O)[C@H](CC(C)C)NC(=O)[C@@H](Cc2ccccc2)NC(=O)[C@H](CCN)NC1=O)C(C)O (stereo partly drawn) [CC5, Octanoyl-Gly- Polymyxin B nonapeptide, reference compound] (Octanoyl-G[Thr(3ξ)][Dab][Dab][Dab][dF]L[Dab][Dab]T; lactam 4-C)",>8 µg/mL,,,,,,,,,MIC (E. coli): 8 µg/mL; MIC (K. pneumoniae): 8 µg/mL
